Here are results for 32 molecules from US5760027A, “Use of 7-alkylidene cephalosporins to inhibit elastase activity” (Research Corporation Technologies, Inc., priority 1996, dated 1998).

SMILES strings stand for the structures.

Common to all, as to format: biochemical
Assay [1] deals with porcine pancreatic elastase (PPE) (Sus scrofa, UniProt P00772). Kind of assay: IC50 determination, inhibition of porcine pancreatic elastase (PPE). The note with it: 5 min incubation with the inhibitor.
Assay [2] addresses T1, human leukocyte elastase (HLE) (Homo sapiens, UniProt P08246).
T1 construct: purchased Elastin Products Company, Inc. (Owensville, Mo.)
T1 sequence (P08246 30-267): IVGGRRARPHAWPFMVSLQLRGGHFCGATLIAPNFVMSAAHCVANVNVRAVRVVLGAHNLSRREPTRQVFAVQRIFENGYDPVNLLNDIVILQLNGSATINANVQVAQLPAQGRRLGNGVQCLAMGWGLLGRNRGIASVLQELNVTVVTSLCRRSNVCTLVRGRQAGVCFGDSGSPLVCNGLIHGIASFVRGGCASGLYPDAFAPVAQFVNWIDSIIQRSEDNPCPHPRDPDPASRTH
Kind of assay: IC50 determination, inhibition of human leukocyte elastase (HLE), hydrolysis of N-(methoxysuccinyl)-L-alanyl-L-alanyl-L-prolyl-L-valine 4-nitroanilide at 410 nm. The note with it: 5 min incubation with the inhibitor; pH 7.5 Tris buffer.

The target of the next assay is T2, HLE (Homo sapiens, UniProt P08246).
T2 construct: chromogenic substrate MeOSuc-AAPV-pNA
T2 sequence (P08246 30-267): T1 sequence (P08246 30-267)
Put plainly: inhibition of HLE followed as a function of time (FIG. 1). The note with it: 10-fold molar excess of inhibitor, assayed at regular intervals (2 to 5 minutes). The protocol: To further document the rapid, irreversible inhibition of this enzyme at low, nearly stoichiometric ratios of inhibitor to enzyme, for selected compounds, this inhibition was followed as a function of time.
The data in FIG. 1 were generated by incubating the enzyme with a 10-fold molar excess of inhibitor. Assays of residual enzymatic activity of this mixture were assayed at regular intervals (2 to 5 minutes).

porcine pancreatic elastase (PPE), sequence (P00772 27-266): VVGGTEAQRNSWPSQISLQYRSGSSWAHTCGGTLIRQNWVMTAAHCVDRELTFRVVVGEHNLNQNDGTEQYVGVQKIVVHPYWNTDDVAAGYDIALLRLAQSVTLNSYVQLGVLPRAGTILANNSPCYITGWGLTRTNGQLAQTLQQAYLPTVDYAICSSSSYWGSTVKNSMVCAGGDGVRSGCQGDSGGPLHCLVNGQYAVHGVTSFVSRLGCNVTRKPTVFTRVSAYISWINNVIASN

On to `CC(=O)OCC1=C(C(=O)OC(c2ccccc2)c2ccccc2)N2C(=O)[C@@H](N)[C@H]2SC1` [Compound 1, Benzhydryl 7β-aminocephalosporanate], for which the IC50 in assay [1] and in assay [2] was over 10 µM throughout.
In the case of `CC(=O)OCC1=C(C(=O)OC(c2ccccc2)c2ccccc2)N2C(=O)C(=O)[C@H]2SC1` [Compound 2, Benzhydryl 7-oxocephalosporanate], the half-inhibitory concentration (IC50) in assay [1] and in assay [2] was over 10 µM throughout.
Take `CC(=O)OCC1=C(C(=O)OC(c2ccccc2)c2ccccc2)N2C(=O)C(=C=CC(C)(C)C)[C@H]2SC1` [Compound 4, Benzhydryl 7-(t-butylvinylidene)cephalosporanate]: the concentration for half-maximal inhibition (IC50) is 5.5 µM in assay [1] and over 10 µM in assay [2].
As to `CC(=O)OCC1=C(C(=O)OC(c2ccccc2)c2ccccc2)N2C(=O)C(=C=CC(C)(C)C)[C@H]2S(=O)(=O)C1` [Compound 5a, Benzhydryl 7-t-butylvinylidene cephalosporanate sulfone], the IC50 in assay [1] was over 10 µM; in assay [2], 10.5 µM.
In assay [2], `[2H]C(=C=C1C(=O)N2C(C(=O)OC(c3ccccc3)c3ccccc3)=C(COC(C)=O)CS(=O)(=O)[C@H]12)C(C)(C)C` [Compound 5b] registered an IC50 of 13.5 µM.
As to `CC(=O)OCC1=C(C(=O)OC(c2ccccc2)c2ccccc2)N2C(=O)C(=C=CBr)[C@H]2SC1` [Compound 6, Benzhydryl 7-(-bromovinylidene)cephalosporanate], the 50% inhibitory concentration (IC50) is over 10 µM in assay [1] and 5.4 µM in assay [2].
Consider `C=C=C1C(=O)N2C(C(=O)OC(c3ccccc3)c3ccccc3)=C(COC(C)=O)CS[C@H]12` [Compound 7, Benzhydryl 7-vinylidenecephalosporanate], for which the figures for the IC50 in assay [1] and in assay [2] were 0.67 µM and 9 µM, respectively.
Consider `C=C=C1C(=O)N2C(C(=O)OC(c3ccccc3)c3ccccc3)=C(COC(C)=O)CS(=O)(=O)[C@H]12` [Compound 8, Benzhydryl 7-vinylidenecephalosporanate sulfone], for which the IC50 in assay [1] turned out to be 4.1 µM; in assay [2], 6.1 µM.
The matching figures for `CC(=O)OCC1=C(C(=O)OC(c2ccccc2)c2ccccc2)N2C(=O)/C(=C/c3ccccc3)[C@H]2SC1` [Compound 9, benzhydryl 7-[(Z)-benzylidene] cephalosporanate]: over 10 µM and over 10 µM.
For the molecule `CC(=O)OCC1=C(C(=O)OC(c2ccccc2)c2ccccc2)N2C(=O)/C(=C/c3ccccc3)[C@H]2S(=O)(=O)C1` [Compound 10, Benzhydryl 7-[(Z)-benzylidene]cephalosporanate sulfone], the figures for the IC50 in assay [1] and in assay [2] were over 10 µM and 8.9 µM, respectively.
Take `CC(=O)OCC1=C(C(=O)OC(c2ccccc2)c2ccccc2)N2C(=O)/C(=C\c3ccccc3)[C@H]2SC1` [Compound 11, Benzhydryl 7-[(E)-benzylidene]cephalosporanate]: the IC50 in assay [1] and in assay [2] was over 10 µM throughout.
On to `CC(=O)OCC1=C(C(=O)OC(c2ccccc2)c2ccccc2)N2C(=O)/C(=C\c3ccccc3)[C@H]2S(=O)(=O)C1` [Compound 12, Benzhydryl 7-[(E)-benzylidene]cephalosporanate sulfone], for which the IC50 in assay [1] is over 10 µM; in assay [2], 6 µM.
`CC(=O)OCC1=C(C(=O)OC(c2ccccc2)c2ccccc2)N2C(=O)C(=C(Br)Br)[C@H]2SC1` [Compound 13, Benzhydryl 7-[dibromomethylene]cephalosporanate]: the “residual HLE activity / inhibition as a function of time” value (from here on “residual HLE activity / inhibition”) at HLE is “extremely rapid and efficient inhibitor of HLE”. In addition, the half-maximal inhibitory concentration (IC50) in assay [1] came out at 6.42 µM; in assay [2] it was 0.26 µM.
For the molecule `CC(=O)OCC1=C(C(=O)OC(c2ccccc2)c2ccccc2)N2C(=O)C(=C(Br)Br)[C@H]2S(=O)(=O)C1` [Compound 14, Benzhydryl 7-[dibromomethylene]cephalosporanate sulfone], on HLE, the “residual HLE activity / inhibition” value is given as “very potent, irreversible inhibitors of HLE”. Also, the IC50 in assay [1] stood at 4.8 µM; in assay [2], 2.07 µM.
`CC(=O)OCC1=C(C(=O)OC(c2ccccc2)c2ccccc2)N2C(=O)/C(=C\Br)[C@H]2SC1` [Compound 15, Benzhydryl 7-[(E)-bromomethylene]cephalosporanate]: at HLE, the “residual HLE activity / inhibition” value was “very potent, irreversible inhibitors of HLE”. Further, the IC50 worked out at 9.6 µM in assay [1] and 0.39 µM in assay [2].
As for `CC(=O)OCC1=C(C(=O)OC(c2ccccc2)c2ccccc2)N2C(=O)/C(=C\Br)[C@H]2S(=O)(=O)C1` [Compound 16, Benzhydryl 7-[(E)-bromomethylene]cephalosporanate sulfone], the “residual HLE activity / inhibition” value at HLE was “leveling off and allowing the enzyme to regain its activity”. Moreover, the 50% inhibitory concentration (IC50) in assay [1] amounted to 2.49 µM; in assay [2], 3.36 µM.
For the molecule `CC(=O)OCC1=C(C(=O)OC(c2ccccc2)c2ccccc2)N2C(=O)/C(=C/C(=O)OC(C)(C)C)[C@H]2SC1` [Compound 17, Benzhydryl 7-[(Z)-t-butoxycarbonylmethylene]cephalosporanate], the IC50 in assay [2] is over 10 µM.
For the molecule `CC(=O)OCC1=C(C(=O)OC(c2ccccc2)c2ccccc2)N2C(=O)/C(=C/C(=O)OC(C)(C)C)[C@H]2S(=O)(=O)C1` [Compound 18, Benzhydryl 7-[(Z)-(t-butoxycarbonyl)methylene]-cephalosporanate sulfone], the results for the half-inhibitory concentration (IC50) in assay [1] and in assay [2] were over 10 µM and 7.1 µM, respectively.
As to `CC(=O)OCC1=C(C(=O)OC(c2ccccc2)c2ccccc2)N2C(=O)/C(=C/C=O)[C@H]2SC1` [Compound 19, Benzhydryl 7-[(Z)-formylmethylene]cephalosporanate], the IC50 in assay [1] amounted to 5.2 µM; in assay [2], 13.9 µM.
The matching figures for `CC(=O)OCC1=C(C(=O)OC(c2ccccc2)c2ccccc2)N2C(=O)/C(=C/c3ccccn3)[C@H]2SC1` [Compound 20, Benzhydryl 7-[(Z)-(2'-pyridyl)methylene]cephalosporanate]: over 10 µM and over 10 µM.
In the case of `CC(=O)OCC1=C(C(=O)OC(c2ccccc2)c2ccccc2)N2C(=O)/C(=C/c3ccccn3)[C@H]2S(=O)(=O)C1` [Compound 21, Benzhydryl 7-[(Z)-(2'-pyridyl)methylene]cephalosporanate sulfone], the half-inhibitory concentration (IC50) in assay [1] and in assay [2] was over 10 µM in each case.
For `CC(=O)OCC1=C(C(=O)OC(c2ccccc2)c2ccccc2)N2C(=O)C(=C(Cl)Cl)[C@H]2S(=O)(=O)C1` [Compound 23, Benzhydryl 7-[dichloromethylene]cephalosporanate sulfone], the concentration for half-maximal inhibition (IC50) is over 10 µM in assay [1] and 2.56 µM in assay [2].
As for `COC(=O)/C=C1/C(=O)N2C(C(=O)OC(c3ccccc3)c3ccccc3)=C(COC(C)=O)CS(=O)(=O)[C@H]12` [Compound 25, Benzhydryl 7-[(Z)-(methoxycarbonyl)methylene]cephalosporanate sulfone], the IC50 in assay [1] is over 10 µM; in assay [2], 8.9 µM.
For the molecule `CC(=O)OCC1=C(C(=O)OC(c2ccccc2)c2ccccc2)N2C(=O)/C(=C/CO)[C@H]2SC1` [Compound 26, Benzhydryl 7-[(Z)-(hydroxymethyl)methylene]cephalosporanate], the IC50 in assay [1] and in assay [2] was over 10 µM throughout.
With `CON(C)C(=O)/C=C1/C(=O)N2C(C(=O)OC(c3ccccc3)c3ccccc3)=C(COC(C)=O)CS(=O)(=O)[C@H]12` [Compound 27, Benzhydryl 7-[(Z)-N-methoxy-N-methylaminocarbonylmethylene]cephalosporanatesulfone], the IC50 in assay [1] and in assay [2] was over 10 µM throughout.
With `CC(=O)/C=C1/C(=O)N2C(C(=O)OC(c3ccccc3)c3ccccc3)=C(COC(C)=O)CS(=O)(=O)[C@H]12` [Compound 29, Benzhydryl 7-[(Z)-acetylmethylene]cephalosporanate sulfone], the IC50 was 6 µM in assay [1] and over 10 µM in assay [2].
For the molecule `CC(=O)OCC1=C(C(=O)OC(c2ccccc2)c2ccccc2)N2C(=O)/C(=C/C#N)[C@H]2SC1` [Compound 30, Benzhydryl 7-[(Z)-cyanomethylene]cephalosporanate], the half-maximal inhibitory concentration (IC50) in assay [2] is over 10 µM.
Still for that read-out and setting: the result for `CC(=O)OCC1=C(C(=O)OC(c2ccccc2)c2ccccc2)N2C(=O)/C(=C/C#N)[C@H]2S(=O)(=O)C1` [Compound 31, Benzhydryl 7-[(Z)-cyanomethylene]cephalosporanate sulfone] reads 0.49 µM.
In assay [2], `COC(=O)/C(Br)=C1/C(=O)N2C(C(=O)OC(c3ccccc3)c3ccccc3)=C(COC(C)=O)CS[C@H]12` [Compound 32, Benzhydryl 7-{[(E)-bromo-(Z)-methoxycarbonyl]methylidene} cephalosporanate] came in with a concentration for half-maximal inhibition (IC50) of 0.21 µM.
Turning to `CC(=O)OCC1=C(C(=O)OC(c2ccccc2)c2ccccc2)N2C(=O)C[C@H]2SC1` [Compound 33, reference compound], the IC50 in assay [1] and in assay [2] was over 10 µM each time.
In assay [2], `CO[C@H]1C(=O)N2C(C(=O)OC(c3ccccc3)c3ccccc3)=C(COC(C)=O)CS[C@H]12` [Compound 36, reference compound] displayed an IC50 of 5.35 µM.
`CO[C@H]1C(=O)N2C(C(=O)OC(c3ccccc3)c3ccccc3)=C(COC(C)=O)CS(=O)(=O)[C@H]12` [Compound 37, reference compound] displayed an IC50 in assay [2] of 0.28 µM.
